Values belong to the compound of their own block, whether it stands above or below them.
Experiments:
[1] = tested on: Caco-2 human adenocarcinoma cells; test: Absorption of reduced or oxidised vitamin K2-(MK7) on cell monolayer of Caco-2 cells in vitro; format: in vitro ADME; details: for amount of vitamin internalized by the cell layer (μg of vitamin per g of homogenate): 100 μM vitamin applied to apical compartment, 1% ethanol
Procedure: Caco-2 human adenocarcinoma cells were cultured on a permeable insert inserted in the well of a microplate to form a confluent monolayer with the barrier function between an apical and a basolateral compartment. The perfect integrity of the monolayer was determined by testing for the absence of passage by lucifer yellow, a compound with low permeability. Samples of vitamin K2-(MK7), alternatively in the reduced form (menaquinol) or the oxidized form (menaquinone), were dissolved in ethanol and applied to the apical compartment, the 1% ethanol solution being added to the incubation buffer. The final solution in the incubation well was fixed at 100 μM of vitamin.
At the end of the incubation period the cell layer was removed from the insert and homogenized, and the homogenate was centrifuged. The amount of vitamin present in the supernatant was determined by HPLC. The centrifugation pellet was then resuspended in 1 ml of water, and 1.5 ml of isopropanol and 2.5 ml of hexane were added to the suspension. After stirring, the organic phase formed was analyzed, again by HPLC, for the concentration of vitamin K2 (MK7). The total of the two values was used to calculate the amount of vitamin internalized by the cell layer.

[2] = Stability tests of solid forms of reduced vitamin K2-(MK7) (oxidation of the reduced form over storage time); format: physicochemical; details: for Reduced (t/t0 %): percentage of the initial value of the reduced form; for percentage of the initial value of the reduced form: packaging Alu/vacuum

amount of vitamin internalized by the cell layer (μg of vitamin per g of homogenate) ([1]; mean of wells 1-4): 0.6 μg/g hom.
amount of vitamin internalized by the cell layer (μg of vitamin per g of homogenate) ([1]; well 1): 0.4 μg/g hom.
amount of vitamin internalized by the cell layer (μg of vitamin per g of homogenate) ([1]; well 2): 0.5 μg/g hom.
amount of vitamin internalized by the cell layer (μg of vitamin per g of homogenate) ([1]; well 3): 0.6 μg/g hom.
amount of vitamin internalized by the cell layer (μg of vitamin per g of homogenate) ([1]; well 4): 0.7 μg/g hom.
SMILES: CC(C)=CCC/C(C)=C/CC/C(C)=C/CC/C(C)=C/CC/C(C)=C/CC/C(C)=C/CC/C(C)=C/CC1=C(C)C(=O)c2ccccc2C1=O [Oxidised vitamin, menaquinone 7, reference compound]

amount of vitamin internalized by the cell layer (μg of vitamin per g of homogenate) ([1]; mean of wells 1-4): 1.1 μg/g hom.
uptake by Caco-2 cell layer compared with the oxidized form ([1]; result in words, 100 μM vitamin): slightly but significantly higher uptake
amount of vitamin internalized by the cell layer (μg of vitamin per g of homogenate) ([1]; well 1): 0.8 μg/g hom.
amount of vitamin internalized by the cell layer (μg of vitamin per g of homogenate) ([1]; well 2): 1.6 μg/g hom.
amount of vitamin internalized by the cell layer (μg of vitamin per g of homogenate) ([1]; well 3): 1.0 μg/g hom.
amount of vitamin internalized by the cell layer (μg of vitamin per g of homogenate) ([1]; well 4): 0.8 μg/g hom.
SMILES: CC(C)=CCC/C(C)=C/CC/C(C)=C/CC/C(C)=C/CC/C(C)=C/CC/C(C)=C/CC/C(C)=C/Cc1c(C)c(O)c2ccccc2c1O [Reduced vitamin, menaquinol 7]

Reduced (t/t0 %) ([2]; Time 0 days): 100%
Reduced (t/t0 %) ([2]; Time 3 days): 4%
SMILES: CC(C)=CCC/C(C)=C/CC/C(C)=C/CC/C(C)=C/CC/C(C)=C/CC/C(C)=C/CC/C(C)=C/Cc1c(C)c(O)c2ccccc2c1O [menaquinol 7, reference compound]

percentage of the initial value of the reduced form ([2]; T = 0): 100%
percentage of the initial value of the reduced form ([2]; T = 1 month): 95.4%
percentage of the initial value of the reduced form ([2]; T = 2 months): 98.9%
percentage of the initial value of the reduced form ([2]; T = 3 months): 97.9%
% vitamin oxidised ([2]; Time 0 days): 18.41%
% vitamin reduced ([2]; Time 0 days): 81.58%
% vitamin oxidised ([2]; Time 3 days): 23.67%
% vitamin reduced ([2]; Time 3 days): 76.24%
% vitamin oxidised ([2]; Time 6 days): 36.69%
% vitamin reduced ([2]; Time 6 days): 63.16%
% vitamin oxidised ([2]; Time 10 days): 51.48%
% vitamin reduced ([2]; Time 10 days): 48.27%
% vitamin oxidised ([2]; Time 11 days): 52.67%
% vitamin reduced ([2]; Time 11 days): 47.04%
% vitamin oxidised ([2]; Time 12 days): 61.09%
% vitamin reduced ([2]; Time 12 days): 38.44%
SMILES: CC(C)=CCC/C(C)=C/CC/C(C)=C/CC/C(C)=C/CC/C(C)=C/CC/C(C)=C/CC/C(C)=C/Cc1c(C)c(O)c2ccccc2c1O [menaquinol 7]
